Where a name gives a salt, the structure may show the parent alone. Each block holds one molecule with its values, some of them ahead of it.
Assays:
Type in all cases: physicochemical
Solubility in water = conditions: compared with the known Form I
From the text: In general, only the hydrated Form III rimonabant is obtainable by a process employing water as the solvent. The other known solvent-free forms I and II are made by a process employing solely an organic solvent. The Form III is thus an advantageous form from technological and ecological reasons.

[1] = Storage stability of solid forms at room temperature
Protocol: In detail, rimonabant base may be isolated in a new solid state crystalline hydrate form, designated as the Form III. Form III is characterized by the XRPD spectrum having characteristic peaks at angles of around 9.29°, 10.49°, 13.52°, 15.25°, 17.78° using a 2-theta scale. […] The hydrated Form III is stable during storage at room temperature.
In general, a mixture of the hydrated Form III and the methanol solvate Form IV may be obtained after a crystallization of rimonabant base from a methanol solvent containing water. Mixtures of the hydrated Form III and the methanol solvate Form IV may also be obtained by crystallizing rimonabant base and rimonabant hydrochloride from methanol/water mixtures. A longer crystallization time, a slower cooling, and a lower solute concentration each generally promote the crystallization of Form III over Form IV. […] The methanolate Form IV is thus a thermodynamically unstable form. A mixture of Forms III and Form IV is also useful for making particulated amorphous rimonabant base.
Rimonabant base may also be isolated in a propanol solvate form, designated as the Form VI. Form VI is characterized by the following XRPD having characteristic peaks at angles of around 6.73°, 8.36°, 9.92°, 11.98°, 13.45°, 14.34°, 18.14°, 21.43°, 21.88°, 24.13°, 31.03° and 32.28° using a 2-theta scale. […] Instead, the known Form I of the crystalline anhydrous rimonabant is provided after a crystallization from 2-propanol. Form VI may be obtained by crystallizing rimonabant base from a 1-propanol solvent. For example, the crystallization may be induced by a slow evaporation of the 1-propanol solvent.

[2] = Thermal desolvation of hydrates/solvates by heating/drying; conditions: among Form III, IV, V and VI; temperature higher than 80° C. preferable
From the text: The conversion of any of the above hydrates and/or solvates, as well as mixtures thereof, to the particulated amorphous rimonabant base may be performed by a heating (drying) thereof at an enhanced temperature (e.g., higher than room temperature), preferably at diminished pressure (e.g., lower than atmospheric pressure). The transformation into the particulated amorphous rimonabant base may be accomplished by the fact that the crystalline lattice of any of the solvates and/or hydrates is thermally unstable and may collapse at an enhanced temperature without any further recrystallization into the most thermodynamically stable form of rimonabant, the Form I. Accordingly the Form I cannot apparently be converted into the amorphous form by such a simple transformation.
The fastest loss of the bound solvent in combination with amorphization occurs for the ethanol solvate, where the heating/drying of the product takes place at 60° C. or more, generally 60-80° C. Accordingly, the ethanol solvate can be used to obtain powderized amorphous rimonabant base. For other hydrates/solvates, e.g., for the methanolate Form IV, propanolate Form VI, hydrate Form III or hydrate Form V, a temperature higher than 80° C. is preferable to facilitate the conversion into the particulate amorphous rimonabant base. […]

[3] = Stability of the salt towards solvents (crystallization or stirring of a suspension)
From the text: A known rimonabant solvate form, a rimonabant ethanol solvate, is disclosed in U.S. Pat. No. 5,624,941 (Example 212). According to U.S. Pat. No. 5,624,941, this ethanol solvate may be made by crystallizing rimonabant from ethanol. It has now been discovered that the same rimonabant ethanol solvate may be obtained by a novel solvent mediated transformation, such as by suspending and stirring the anhydrous rimonabant base in a liquid comprising ethanol. For example, the liquid may be an ethanol/water mixture, e.g. having a 3:1 (V/V) ratio. Also the crystallization of rimonabant hydrochloride from an ethanol/water mixture may provide for the known ethanolate of rimonabant base, which is another process not disclosed in the prior art and indicates the instability of rimonabant hydrochloride towards solvents comprising ethanol. As described more fully below, this ethanol solvate can be used to form amorphous rimonabant.
In this regard, the rimonabant salt can precipitate as the base, either by addition of a neutralizing base or spontaneously, and/or can precipitate as the salt and convert to the base by a solvent mediated transformation. Accordingly, stirring a suspension of rimonabant hydrochloride in a solvent comprising water (e.g. water/methanol=30:1 V/V) at ambient temperature provides for solvent-mediated polymorphic transformation yielding the Form III of rimonabant base. […]

- stability during storage [1]: stable
SMILES: Cc1c(C(=O)NN2CCCCC2)nn(-c2ccc(Cl)cc2Cl)c1-c1ccc(Cl)cc1 [Form III, Rimonabant]
- solubility in water (Solubility in water): same solubility in water as the known Form I

- conversion during storage ([1]; in the presence of air humidity): may be converted into Form III
SMILES: Cc1c(C(=O)NN2CCCCC2)nn(-c2ccc(Cl)cc2Cl)c1-c1ccc(Cl)cc1 [Form IV, Rimonabant]

- stability during storage [1]: sufficiently stable
- relative stability to heating/drying (desolvation) [2]: most stable
SMILES: Cc1c(C(=O)NN2CCCCC2)nn(-c2ccc(Cl)cc2Cl)c1-c1ccc(Cl)cc1 [Form VI, Rimonabant]

- stability towards solvents comprising ethanol ([3]; crystallization from an ethanol/water mixture gives the ethanolate of the base): instability
- stability towards solvents comprising water ([3]; e.g. water/methanol 30:1 V/V, ambient temperature, yields Form III of the base): not stable
SMILES: Cc1c(C(=O)NN2CCCCC2)nn(-c2ccc(Cl)cc2Cl)c1-c1ccc(Cl)cc1 [rimonabant hydrochloride]

Source: patent US20080182877A1, “Rimonabant forms and methods of making the same” (priority 2007, published 2008)
